Data: patent US7507764B2 (Tego BioSciences Corporation, priority 2003, dated 2009)
Entries after “also recorded” stand apart in the source; their conditions may differ.

Assay: Qualitative solubility in water and organic solvents
Assay type: physicochemical
Conditions: for solubility in methanol: compared to octadecadiynyl analogues 12 and 3; for solubility in organic solvents: organic solvents like CHCl3, CH2Cl2 (and DMF)
Description: Thus self-aggregation behavior of 3 has not been investigated. To increase the polar character and to improve the water-solubility of such a bis-biotinated derivative, the [5:1]-hexakisadduct 13 with five ethyl malonate addends instead of the five octadecadiynyl malonates was synthesized (FIG. 2). To overcome the general problem of separating the desired hexakisadducts from other adducts formed simultaneously upon the exhaustive cyclopropanation step the sequence of addition steps was reversed in this case. For this purpose the cherry-red C2v-symmetrical [5:0]-pentakisadduct 14^[14] was prepared and used as starting material. The subsequent cyclopropanation reaction with the Boc-protected spacer malonate 8 to complete the C2v-symmetrical octahedral addition pattern afforded the bright-yellow N-Boc-protected [5:1]-hexakisadduct 15 in 63% yield after FC and HPLC purification. After cleavage of the Boc-protecting groups with TFA/CH2Cl2 the bis-amino amphifullerene 16 was obtained in quantitative yield. […]
The characterization of the protected dipeptide hexakisadduct precursors 45 and 46 as well as the free dipeptide hexakisadducts 47 and 48 succeeded by IR-, UV-, ^1H and ^13C NMR and by FAB mass spectroscopy.
The synthesis of a series of mixed amphiphilic hexakisadducts of C60 with an octahedral addition pattern is now described. The new [5:1]-hexakisadduct 3 involving five non-polar long chain malonate addends and one polar addend with two biotin termini is insoluble in water. As a consequence it cannot be used for the investigation of superstructures in aqueous solution. However, it represents an attractive building block for a potential co-surfactant aided assembly to mixed micelles or liposomes. The spacer carrying the biotin termini was designed in a way that it can protrude through a layer of assembled lipid molecules such as DPPC. This in principle makes it available for targeting of micelles and liposomes via avidin mediated binding of label molecules. This is believed to be the first report of the synthesis of amphiphilic [3:3]-hexakisadducts of C60. The key for the very facile access to these aesthetically pleasing molecules is the easy synthesis of the e,e,e-trisadduct 18, which can be prepared in one step from the highly regioselective addition of cyclo-[3]-octylmalonate 17. The remaining three octahedral sites are available for the attachment of three ionic or neutral polar addends. As termini carboxy, amino and peptide moieties were used. This allows for the introduction of a tunable number of positive or negative charges within the polar groups by pH-variation. In a few cases preliminary investigations on the self-assembly using cryo-TEM and PGSE-NMR have been carried out. It has been shown that the solubility and self-assembly properties depend on the number of ionic charges and therefore on the pH value. These are very favourable opportunities for the controlled encapsulation and release of non-polar guest molecules making such amphiphilic fullerenes interesting candidates for drug delivery systems. Extensive investigations on the aggregation and inclusion properties of amphiphilic [3:3]-hexakisadducts of C60 are currently under way.

Row | Substance | solubility in methanol | solubility in organic solvents | self-assembly in water | solubility in water
1 | 1,2-{Bis-(14-[3-{2-(2-[Aminopropoxy]-ethoxy)-ethoxy}-propyl]carbamoyl-tetradecyloxycarbonyl)-methano}-18,36:22,23:27,45:31,32:55,60-pentakis-{ethyloxycarbonyl)-methano}-1,2:18,36:22,23:27,45:31,32:55,60-dihydro[60]fullerene [compound 16] | enhanced solubility | appreciable solubility | – | –
2 | 1,2-{Bis-(14-[3-{2-(2-[N-Biotinyl-aminopropoxy]-ethoxy)-ethoxy}-propyl]-carbamoyltetradecyloxycarbonyl)-methano}-18,36:22,23:27,45:31,32:55,60-pentakis-{di(10,12-octadecadiynyloxycarbonyl)-methano}-1,2:18,36:22,23:27,45:31,32:55,60-dihydro[60]fullerene [compound 3] | – | Acceptable solubility | inappropriate to form self-assemblies in water | only soluble in the presence of a co-solvent like methanol; also recorded: water-insoluble
3 | 1,2-{Bis-(14-[3-{2-(2-[N-Biotinyl-aminopropoxy]ethoxy)-ethoxy}-propyl]-carbamoyl-tetradecyloxycarbonyl)-methano}-18,36:22,23:27,45:31,32:55,60-pentakis-{ethyloxycarbonyl)-methano}1,2:18,36:22,23:27,45:31,32:55,60-dihydro-[60]fullerene [compound 13] | enhanced solubility | appreciable solubility | inappropriate to form self-assemblies in water | water-insoluble
